Laboratory results as given in BindingDB's records for doi:10.1016/j.bmcl.2009.04.143 (Incyte, 2009).

experiment: Inhibition of HER2 extracellular domain sheddase activity in human BT474 cells after 72 hrs by ELISA

IC50 [nM] | Compound
208 | O=C(NO)[C@H]1CC(CC(=O)N2CCOCC2)CC[C@@H]1C(=O)N1CCN(c2ccccc2)CC1 (mixture of isomers) [(1S,2S,5RS)-N-hydroxy-5-(2-morpholino-2-oxoethyl)-2-(4-phenylpiperazine-1-carbonyl)cyclohexanecarboxamide]
100 | O=C(NO)[C@H]1CC2(CC[C@@H]1C(=O)N1CCN(c3ccccc3)CC1)CC2 [(5S,6S)-N-hydroxy-6-(4-phenylpiperazine-1-carbonyl)spiro[2.5]octane-5-carboxamide]
226 | O=C(NO)[C@H]1CC(CC(=O)N2CC[C@@H](O)C2)CC[C@@H]1C(=O)N1CCN(c2ccccc2)CC1 (mixture of isomers) [(1S,2S,5RS)-N-hydroxy-5-(2-((R)-3-hydroxypyrrolidin-1-yl)-2-oxoethyl)-2-(4-phenylpiperazine-1-carbonyl)cyclohexanecarboxamide]
100 | CN1CCN(C(=O)CC2CC[C@H](C(=O)N3CCN(c4ccccc4)CC3)[C@@H](C(=O)NO)C2)CC1 (mixture of isomers) [(1S,2S,5RS)-N-hydroxy-5-(2-(4-methylpiperazin-1-yl)-2-oxoethyl)-2-(4-phenylpiperazine-1-carbonyl)cyclohexanecarboxamide]
102 | CN1CC(CC(=O)N2CCCCC2)C[C@H](C(=O)NO)[C@H]1C(=O)N1CCN(c2ccccc2)CC1 (mixture of isomers) [(2S,3S,5RS)-N-hydroxy-1-methyl-5-(2-oxo-2-(piperidin-1-yl)ethyl)-2-(4-phenylpiperazine-1-carbonyl)piperidine-3-carboxamide]
28 | O=C(NO)[C@H]1CC(CC(=O)N2CCCC2)CN[C@@H]1C(=O)N1CCN(c2ccccc2)CC1 (mixture of isomers) [(2S,3S,5RS)-N-hydroxy-5-(2-oxo-2-(pyrrolidin-1-yl)ethyl)-2-(4-phenylpiperazine-1-carbonyl)piperidine-3-carboxamide]
